From publication PMC12624434 (ACS Pharmacology & Translational Science, 2025)
Entries after “also recorded” stand apart in the source; their conditions may differ. Marks after values point to notes of the source that are not given here.

Key:
[1] = test system: T180/Y182 phosphorylated p38 (P-p38) in retinal endothelium; experiment: VEGFA-induced p38 phosphorylation in ex vivo mouse retina (immunostaining); assay type: cell-based
Protocol: Retinae from C57Bl/6J mice were fixed in 4% formaldehyde in PBS for 1 h and washed three times with PBS. After 1 h in blocking buffer (3% Triton X-100, 1%1% Tween and 0.5% BSA in 2× PBS), retinae were immunostained by incubation with rabbit anti-P-p38 MAPK (Thr180/Tyr182) antibody (Cell Signaling) and biotin-conjugated Isolectin B4 (IB4, Merck) overnight at 4 °C, followed by Alexa Fluor 555–conjugated goat antirabbit antibodies (Invitrogen) and Alexa Fluor 488-conjugated streptavidin (Invitrogen) respectively for 1 h at rt. Images were acquired with a Zeiss Axioskop 2 microscope, using a ph3 Plan-Apochromat 63×/1.40 oil objective, Hamamatsu camera and the HCImage software. Each image was acquired as an RGB color image and then processed with ImageJ software version 1.52a (NIH Bethesda). Channels were split to separate the IB4 staining (green channel) from the P-p38 staining (red channel). The threshold function was used on the IB4 image to determine the area of the vessels and to generate a mask that was restored in the red channel image to measure the area of the vessels positive to P-p38 staining. The P-p38 staining area was normalized against the area stained with IB4. Three retinae from three different mice per condition were used for analysis. One-way ANOVA was used to compare the different treatments.

[2] = test system: total Na+ currents in rat DRG neurons; experiment: Whole-cell patch-clamp of Na+ currents in dissociated DRG neurons; assay type: cell-based; settings: for V 1/2 activation, total Na+ / V 1/2 inactivation, total Na+: mean ± SEM (n cells)
Protocol: Recordings were obtained from acutely dissociated DRG neurons obtained from female rats as described earlier. Patch-clamp recordings were performed at room temperature (22–24 °C). Currents were recorded using an EPC 10 Amplifier-HEKA (HEKA Elektronik, Ludwigshafen, Germany) linked to a computer with Patchmaster software.
To determine the effect of VEGFA application on voltage-gated sodium currents, we incubated DRG neurons for 30 min with recombinant rat VEGFA, 1 nM (Cat#P4853, Abnova, Taipei, Taiwan) before whole-cell patch-clamp recordings. […] For the control condition, DRG neurons were incubated for 30 min with DMSO at a final concentration of 0.1%.
For Na^+ current (I Na+) recordings, the external solution contained (in mM): 130 NaCl, 3 KCl, 30 tetraethylammonium chloride, 1 CaCl2, 0.5 CdCl2, 1 MgCl2, 10 D-glucose and 10 HEPES (pH 7.3 adjusted with NaOH, and mOsm/L = 315). Patch pipettes were filled with an internal solution containing (in mM): 140 CsF, 1.1Cs-EGTA, 10 NaCl, and 15 HEPES (pH 7.3 adjusted with CsOH, and mOsm/L = 300). Peak Na^+ current was acquired by applying 150 ms voltage steps from – 70 to +60 mV in 5-mV increments from a holding potential of – 60 mV to obtain the current–voltage (I–V) relation.
Normalization of currents to each cell’s capacitance (pF) was performed to allow for collection of current density data. For I–V curves, functions were fitted to data using a nonlinear least-squares analysis. I–V curves were fitted using double Boltzmann functions: f=a+g1/(1+exp((x−V1/21)/k1))+g2/(1+exp(−(x−V1/22)/k2)) where x is the membrane potential, V 1/2 is the midpoint potential and k is the corresponding slope factor for single Boltzmann functions. Double Boltzmann fits were used to describe the shape of the curve, not to imply the existence of separate channel populations. Numbers 1 and 2 simply indicate first and second midpoints; a along with g are fitting parameters.
Activation curves were obtained from the I–V curves by dividing the peak current at each depolarizing step by the driving force according to the equation: G = I/(V mem – E rev), where I is the peak current, V mem is the membrane potential and E rev is the reversal potential. The conductance (G) was normalized against the maximum conductance (G max). Steady-state inactivation (SSI) curves were obtained by applying an H-infinity protocol that consisted of 1-s conditioning prepulses from −120 to +10 mV in 10-mV increments followed by a 200 ms test pulse to +10 mV. Inactivation curves were obtained by dividing the peak current recorded at the test pulse by the maximum current (I max). Activation and SSI curves were fitted with the Boltzmann equation.

[3] = test system: VEGFA-induced aversion to mechanical stimuli in rats; experiment: Conditioned place aversion (CPA) to 10 g vF stimulation after VEGFA; assay type: in vivo, rat
Protocol: (§1) The procedure was performed as reported previously. Briefly, rats were gently restrained in a fabric cloth and given an intraplantar injection in the hind-paw containing VEGFA165 (10 nM) and compound (EG00229 or 12h, at 30 or 10 μM) alone or in combination in 50 μL of PBS vehicle (NaCl 137 mM, KCl 2.5 mM, Na2HPO4 10 mM, and KH2PO4 1.8 mM), using a 31G needle.
The experiments were conducted in a two-chamber device based on the protocols from and as previously described. The protocol includes 4 × 10 min of sequential tests of preconditioning (10 min), conditioning (2 × 10 min) and testing (10 min). During preconditioning, the animal is allowed free access to two connected chambers (30 × 30 × 19 cm), each associated with a scented lip-balm applied to the walls. Immediately following preconditioning, a divider was applied between the chambers, and the rats were conditioned to either stimuli or no-stimuli for 10 min in each chamber. The stimuli consisted of repeated stimulation with a 10 g VF-filament every 30 s for the 10 min that the subject was contained in that chamber, while no stimuli (NS) was applied in the other chamber. The order and side of conditioning was alternated between subjects. Following the conditioning, the divider was removed, and the rat was allowed free access to both chambers for the 10 min test. Animal movements in each chamber were recorded by a camera above, and the duration of time spent in each chamber was recorded during preconditioning and test phase. Decreased time spent in a chamber during the test versus preconditioning indicated avoidance for that chamber and was calculated as a CPA-score: time in VF-chamber during preconditioning – time in VF-chamber during test.

[4] = test system: P-p38 in human brain endothelial cell line hCMEC/D3; experiment: p38 phosphorylation in hCMEC/D3 cells (immunoblotting); assay type: cell-based
Protocol: Cell lysates of the human brain endothelial cell line hCMEC/D3 were prepared in RIPA buffer containing 0.1% SDS, protease inhibitor cocktail 2 and phosphatase inhibitor cocktail (Sigma-Aldrich). Proteins were separated by SDS-PAGE and transferred to nitrocellulose by wet electrotransfer. Membranes were blocked with 5% milk in Tris-buffered saline (TBS) overnight at 4 °C and then incubated with the appropriate primary antibody diluted in TBS containing 0.1% Tween-20 and 1% BSA for 2 h and 30 min at rt; the primary antibodies used were specific for phospho P-p38, p38 (1:1000; Cell Signaling Technology) and GADPH (1:10000; Merck). Membranes were washed with 0.1% Tween-20 in TBS and then incubated with goat antimouse or goat antirabbit horseradish peroxidase (HRP)-conjugated IgG (GE Healthcare) diluted 1:10,000 or 1:5000, respectively, with 0.1% Tween-20, 1% BSA in PBS. Membranes were developed using the ECL reagents (Roche) and images were acquired with the Bio-Rad ChemiDoc MP Imaging System and the Bio-Rad Image Lab software (version 6.0.1). Protein bands were quantified using ImageJ software version 1.52a (NIH Bethesda), whereby signal intensity was normalized to signal intensity from GADPH from the same sample as a loading control. Phosphorylation levels were normalized against the total levels of p38. Densitometric quantification of three independent immunoblots was determined by changes in protein or phosphoprotein content normalized to GADPH total protein loading controls, with values expressed as fold increase. Data are shown as mean ± SD. Statistical analysis included one-way ANOVA with significance levels set at 0.05, followed by posthoc Dunnett’s tests.

[5] = target: T1, NRP1 b1 domain (Homo sapiens, UniProt O14786); experiment: SPR binding to immobilized NRP1 b1 domain (Biacore 4000, CM5 chip); settings: steady-state binding, 25 °C; mean ± SD; read-out: SPR NRP1 b1 domain equilibrium KD
T1 construct: with the purified recombinant NRP1 b1 domain immobilized on the chip; inferred from Ni-NTA capture), TEV-cleavable (cleaved yes); made in house; host or cells: E. coli Rosetta (DE3)
T1 sequence (O14786 275-424 limits assumed): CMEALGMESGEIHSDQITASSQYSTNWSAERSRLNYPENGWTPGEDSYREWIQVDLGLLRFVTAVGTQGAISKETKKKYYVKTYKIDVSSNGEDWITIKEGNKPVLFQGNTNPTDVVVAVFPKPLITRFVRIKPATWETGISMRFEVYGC
Protocol: Surface Plasmon Resonance experiments were performed using a Biacore 4000 instrument at a constant temperature of 25 °C. Sensor chips, buffer stock solutions, and immobilization reagents were purchased from GE Healthcare. Recombinant human NRP1-b1 was produced in-house and recombinant human NRP1-ECD (extracellular domain) was purchased from ACRO (catalogue number NR1-H5A228). All other reagents were obtained from Sigma.
PBS containing 0.05% surfactant P20 was used as the running buffer during immobilization. NRP1-b1 was immobilized onto a CM5 chip using random amine coupling. The four flow cells were treated in the same way to optimize throughput. In summary, spots 1 and 2 were activated with the coupling reagents EDC and NHS for 10 min. NRP1-b1 at a concentration of 20 μg/mL in 10 mM sodium acetate pH 5 was injected onto the surface for 10 and 5 min in spots 1 and 2, respectively to generate surfaces with high and low density. […] The unmodified spot 3 was used as a reference.
PBS buffer containing 0.05% surfactant P20 and 3% DMSO was used as the running buffer and sample dilution buffer throughout these experiments. Dose–responses were obtained using a 2-fold sample dilution from 16 μM to 31 nM, using an injection time of 60 s. Surface regeneration between injections was not necessary, but a wash step with 1 M NaCl was included after injection of the highest concentration sample for each compound.
Binding curves were corrected for variations in DMSO concentration and normalized by molecular weight. Binding results to high and low-density surfaces were processed independently and the average ± SD is presented. K Ds reported are derived from steady-state binding responses and therefore correspond to the equilibrium binding affinity of the compounds.

[6] = for comparison; no reference given; cited from earlier work
[7] = test system: VEGFA-induced mechanical allodynia in rats; experiment: VEGFA-induced mechanical allodynia (von Frey), intraplantar injection; assay type: in vivo, rat
Protocol: as §1

[8] = 30 μM, 15 min prior to VEGFA165 stimulation

NC(N)=NCCCC(NC(=O)c1sccc1NS(=O)(=O)c1cccc2nsnc12)C(=O)O (centres unmarked) [EG00229, reference compound]
p38 phosphorylation when added alone ([1]; 30 μM alone, 5 min): induced p38 phosphorylation | effect on VEGFA-induced p38 phosphorylation in retinal endothelium [1, 8]: prevented VEGFA-induced p38 phosphorylation | effect on Na+ currents, alone ([2]; 30 μM alone, 30 min): Neither EG00229 nor 12h alone had any obvious effect | effect on VEGFA-induced increase in Na+ currents and current density ([2]; 30 μM, then VEGFA165 1 nM 30 min, small-sized DRG neurons): equally reduced | V 1/2 activation, total Na+ ([2]; compound 30 μM + VEGFA): –16.384 ± 0.773 (15) ^b mV | V 1/2 inactivation, total Na+ ([2]; compound 30 μM + VEGFA): –49.707 ± 2.554 (15) mV | V 1/2 activation, total Na+ ([2]; compound alone, 30 μM): –15.229 ± 0.972 (10) ^b mV | V 1/2 inactivation, total Na+ ([2]; compound alone, 30 μM): –49.108 ± 2.415 (10) mV | effect on VEGFA-induced aversion in CPA-paradigm ([3]; 10 μM, male rats): had no effect | VEGFA-induced aversion (time in vF-conditioned chamber) ([3]; 30 μM coinjected with VEGFA 10 nM, male and female rats): prevented the stimulus-aversion from VEGFA in both sexes; also recorded: the aversion was prevented | CPA-score vs VEGFA/vehicle ([3]; 30 μM, female rats): showed a significant effect | p38 phosphorylation when added alone ([4]; 30 μM alone, 5 min): induced p38 kinase phosphorylation | effect on VEGFA-induced p38 phosphorylation [4, 8]: prevented VEGFA-induced p38 phosphorylation | Kd [5]: 2.71 ± 0.13 µM | half-life [6]: 34.8 min | effect on VEGFA-induced mechanical allodynia ([7]; 10 μM coinjected with VEGFA, male rats): produced significant antinociceptive effects | effect on VEGFA-induced mechanical allodynia (paw withdrawal threshold, AUC 0-6 h) ([7]; 30 μM coinjected with VEGFA165 10 nM, 50 μL intraplantar, male and female rats): comparable antinociceptive effects in males and females
